Results from US6084072A, “Purified lectin and methods of use” (The Regents of the University of Michigan, priority 1993, dated 2000).
Entries after “also recorded” stand apart in the source; their conditions may differ.

Tests used:
[1] = target: T1, Artocarpus intergrifolia lectin (Artocarpus integer, UniProt P18670); details: cited from earlier work
T1 construct: host or cells: Artocarpus integrifolia seeds

amaranthin [2] = target: T2, amaranthin (Amaranthus caudatus, UniProt Q71QF2); assay: Hapten inhibition of amaranthin/asialo-ovine submaxillary mucin precipitation; assay type: binding; details: for Relative Inhibition potency ACA: N-Acetylgalactosamine = 1
Description: (§1) Precipitation assays were conducted in 1.5 ml centrifuge tubes by the method of So and Goldstein. Indicated amounts of glycoprotein were added to 80 μg of amaranthin, and the total volume was adjusted to 250 μl with phosphate buffered saline. The tubes were incubated at 37° C. and then kept at 4° C. for 2 days. The precipitates were centrifuged, washed with cold Phosphate buffered saline, dissolved in 0.05 N NaOH and analyzed for protein by the method of Lowery et al. using bovine serum albumin as the standard. Hapten inhibition assays were carried out using 80 μg of amaranthin, 5 μg of asialo-ovine submaxillary mucins, and the indicated sugar concentrations. Inhibition was determined relative to the amount of precipitate formed in the control with no sugar added. All precipitation assays were conducted in duplicate to bring the tolerance within ±5% and the amount of precipitate formed average.

PNA [3] = target: T3, PNA (Arachis hypogaea, UniProt P02872); assay: Hapten inhibition of PNA/asialoglycophorin precipitation; assay type: binding; details: Galactose = 1; 40 μg PNA, 6 μg asialoglycophorin
T3 construct: purchased E.Y. Laboratories, San Mateo, Calif; (donated by Dr. A. Chu)
T3 sequence (P02872 24-273): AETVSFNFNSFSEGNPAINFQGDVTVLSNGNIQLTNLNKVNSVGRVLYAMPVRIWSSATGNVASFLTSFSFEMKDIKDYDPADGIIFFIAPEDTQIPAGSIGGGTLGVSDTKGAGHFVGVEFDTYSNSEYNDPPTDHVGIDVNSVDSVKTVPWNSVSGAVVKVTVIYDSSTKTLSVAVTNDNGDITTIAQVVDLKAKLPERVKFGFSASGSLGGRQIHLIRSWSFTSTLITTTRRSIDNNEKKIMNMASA
Description: (§2) Precipitation reactions with PNA were carried out similarly, except that 40 μg of PNA was used. Hapten inhibition studies with PNA used 40 μg of PNA, 6 μg of asialoglycophorin, and the indicated sugar concentrations.

amaranthin [4] = target: T2, amaranthin; assay: Elution of amaranthin from Synsorb-T column; assay type: binding
Source text: The unbound material was washed from the Synsorb-T beads with phosphate buffered saline (PBS), and the A. caudatus lectin was eluted with 0.1 N acetic acid, pH 3. The Synsorb-T beads are fine particles of diatomaceous earth, or sand material bonded to the disaccharide Galβ1,3GalNAcα-O--(CH2)8 CO. […] Thus, it was necessary to reapply the unbound material to the affinity column to obtain the remaining lectin.
Elution of amaranthin from the affinity columns with non-specific agents was employed due to the expense and limited availability of Galβ1,3GalNAc, the best binding ligand. GalNAc (0.5 M) was effective in displacing amaranthin from the Synsorb-T matrix. However, when amaranthin (0.9 mg) was applied to a small Synsorb-T column (0.58 ml), it was observed that 100 μM Galβ1,3GalNAcα-O-benzyl eluted the lectin.

PNA [5] = target: T3, PNA; details: reported by Lotan, Pereira; cited from earlier work
amaranthin [6] = target: T2, amaranthin; assay: Precipitation of amaranthin by glycoproteins and glycoconjugates, native or glycosidase treated; assay type: binding; details: for Precipitate formation with amarantin: Glycosidase: β-Galactosidase; for precipitation of amaranthin, in words: untreated glycoprotein or glycoconjugate, 80 μg amaranthin
Description: Glycosidase digestions, and in particular exo-β-galactosidase digestions were carried out for 9 hours at 37° C. in 0.1 M sodium citrate, pH 4.3 using 0.1 unit of enzyme/μmol of terminal galactosyl group. Endo-α-N-acetylgalactosaminidase treatment of asialo-ovine submaxillary mucin was done as described in Sadler, J. E., Rearick, J. L., Paulson, J. C., and Hill, R. L. (1979). GSC Exo-α-N-acetylgalactosaminidase digestion of asialo-ovine submaxillary mucin was carried out according to the recommendations of Genzyme of Boston, Mass. Glycoproteins were analyzed for carbohydrate composition, before and after glycosidase treatment, as described.
as §1

PNA [7] = target: T3, PNA; assay: Precipitation reactions with PNA; assay type: binding
Description: as §2

PNA [8] = target: T3, PNA; details: reported by Pereira; cited from earlier work

T2 sequence (Q71QF2 entry or part of it): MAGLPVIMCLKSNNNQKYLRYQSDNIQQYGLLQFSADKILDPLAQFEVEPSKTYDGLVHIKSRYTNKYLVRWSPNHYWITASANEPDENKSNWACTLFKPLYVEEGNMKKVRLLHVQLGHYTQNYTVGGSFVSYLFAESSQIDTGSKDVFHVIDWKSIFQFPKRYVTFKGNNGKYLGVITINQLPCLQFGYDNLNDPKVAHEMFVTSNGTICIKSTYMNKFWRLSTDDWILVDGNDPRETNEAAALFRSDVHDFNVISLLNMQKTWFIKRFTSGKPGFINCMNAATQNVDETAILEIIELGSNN
T1 sequence (P18670 whole entry): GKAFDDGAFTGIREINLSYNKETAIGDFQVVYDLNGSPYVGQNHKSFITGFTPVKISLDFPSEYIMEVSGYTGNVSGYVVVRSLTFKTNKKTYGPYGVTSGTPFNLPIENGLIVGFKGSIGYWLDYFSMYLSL
T1 sequence (P18673 whole entry partner): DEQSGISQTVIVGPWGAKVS

## CC(=O)N[C@H]1C(O)O[C@H](CO)[C@H](O)[C@@H]1O[C@@H]1O[C@H](CO)[C@H](O)[C@H](O)[C@H]1O (stereo partly shown) [Galβ1,3GalNAc]
[1]
  times more potent than GalNAc: 37
  times more potent than galactose: 100
Amaranthin [2]
  IC50: 3.4 µM
  Relative Inhibition potency ACA: 232

## CC(=O)N[C@H]1[C@@H](OCc2ccccc2)O[C@H](CO)[C@H](O)[C@@H]1O[C@@H]1O[C@H](CO)[C@H](O)[C@H](O)[C@H]1O [Galβ1,3GalNAcα-O-benzyl]
PNA [3]
  Relative Inhibition potency PNA: 50
Amaranthin [2]
  IC50: 1.6 µM
  Relative Inhibition potency ACA: 494
Amaranthin [4]; 0.9 mg amaranthin on 0.58 ml Synsorb-T column
  concentration that eluted the lectin: 100 µM

## CC(=O)N[C@H]1C(O)O[C@H](CO)[C@@H](O[C@@H]2O[C@H](CO)[C@H](O)[C@H](O)[C@H]2O)[C@@H]1O (stereo partly shown) [Galβ1,4GlcNAc]
Amaranthin [2]
  Relative Inhibition potency ACA: < 0.008
PNA [5]
  inhibition of PNA, in words: rather good inhibitors

## CC(=O)N[C@H]1[C@H](O[C@H]2[C@@H](O)[C@@H](CO)O[C@@H](O[C@H]3[C@@H](O)[C@@H](CO)O[C@H](OCc4ccccc4)[C@@H]3NC(C)=O)[C@@H]2O)O[C@H](CO)[C@@H](O)[C@@H]1O [GlcNAcβ1,3Galβ1,3GalNAcα-O-benzyl]
PNA [3]
  Relative Inhibition potency PNA: < 10
Amaranthin [2]
  IC50: 25 µM
  Relative Inhibition potency ACA: 32
Amaranthin [2]; C'-3 substitution with GlcNAc
  decrease of potency by a factor, against Galβ1,3GalNAcα-O-benzyl: 10
Amaranthin [2]; amaranthin
  fold lower reactivity compared with NeuAcα2,3Galβ1,3GalNAcα-O: 10

## CO[C@H]1O[C@H](CO)[C@H](O)[C@H](O)[C@H]1O [Methyl α-galactoside]
PNA [3]
  Relative Inhibition potency PNA: 2.2
Amaranthin [2]
  Relative Inhibition potency ACA: < 0.003

## CO[C@@H]1O[C@H](CO)[C@H](O)[C@H](O)[C@H]1O [Methyl β-galactoside]
PNA [3]
  Relative Inhibition potency PNA: 0.8
Amaranthin [2]
  Relative Inhibition potency ACA: < 0.003

## CC(=O)N[C@H]1C(O)O[C@H](CO)[C@H](O)[C@@H]1O (stereo partly shown) [N-Acetylgalactosamine]
PNA [3]
  Relative Inhibition potency PNA: < 0.4
Amaranthin [2]
  IC50: 790 µM
Amaranthin [2]; inhibitor of amaranthin
  times less potent than Galβ1,3GalNAcα-O--R (α-linked T-antigen disaccharides): 350
Amaranthin [2]; listed as GalNAc
  inhibition of amaranthin/AOSM precipitation, in words: only monosaccharide found to inhibit; also recorded: inhibited by GalNAc
Amaranthin [4]
  concentration effective in displacing amaranthin from the Synsorb-T matrix: 0.5 M

## Asialo-glycopeptide Mt: NH2-terminal 39 amino acids of asialoglycophorin with 12 Galβ1,3GalNAcα-O residues and one N-linked oligosaccharide (LSTTEVAMHTSTSSSVTKSYISSQTNDTHKRDTYAATPR; desialylated glycans; UniProt P02724 20-58, looked up, fragment)
Amaranthin [6]
  Precipitate formation with amarantin: No
  precipitation of amaranthin, in words: reacted strongly; also recorded: reacts very well with amaranthin
Amaranthin [6]; listed as asialo-glycopeptide Mt
  Precipitate formation with amarantin: reactivity was eliminated; also recorded: no longer precipitates

## Asialofetuin: desialylated fetuin
Amaranthin [6]
  precipitation of amaranthin, in words: precipitated a small amount of amaranthin; also recorded: weak precipitation reaction

## Galβ1,3GalNAcβ-O-BSA
PNA [7]
  precipitation of PNA, in words: react equally well

## Galβ1,3[NeuAcα2,6]GalNAcα-O-BSA
Amaranthin [6]
  precipitation of amaranthin, in words: good precipitating agents; also recorded: can precipitate amaranthin

## Galβ,3GalNAcα-O-BSA
PNA [7]
  precipitation of PNA, in words: react equally well
Amaranthin [6]
  precipitation of amaranthin, in words: good precipitating agents
Amaranthin [6]; listed as Galβ1,3GalNAcα-O-BSA
  precipitation of amaranthin, in words: can be precipitated by

## NeuAcα2,3Galβ1,3GalNAcα-OBSA
PNA [7]
  precipitation of PNA, in words: not precipitated
Amaranthin [6]
  precipitation of amaranthin, in words: good precipitating agents

## asialo-α1 -acidglycoprotein: desialylated α1-acid glycoprotein
Amaranthin [6]
  precipitation of amaranthin, in words: did not precipitate amaranthin
PNA [8]
  precipitation of / reaction with PNA, in words: precipitated by

## bovine submaxillary mucin
Amaranthin [6]
  precipitation of amaranthin, in words: did not form precipitates

## fetuin: fetuin, three O-linked oligosaccharide chains per molecule
Amaranthin [6]
  precipitation of amaranthin, in words: did not precipitate amaranthin; also recorded: does not precipitate fetuin

## laminin
Amaranthin [6]
  precipitation of amaranthin, in words: did not precipitate amaranthin
